Assay results: patent US10081602B2, “Opioid agonists and uses thereof” (Nektar Therapeutics, priority 2013, dated 2018)

How the values were obtained:
[1] = test system: acetic acid-induced writhing (visceral pain) in mice; experiment: Acetic acid writhing (AAW) analgesic assay; assay type: in vivo
Description: An analgesic assay was used to determine whether a given compound can reduce and/or prevent visceral pain in mice. The assay utilizes Swiss Albino or CD-1 male mice (5-10 mice per group), each mouse being approximately 0.015-0.030 kg on the study day. Mice were treated according to standard protocols.
The animal was given an intraperitoneal (IP) injection of an irritant (acetic acid) that induces “writhing” which may include: contractions of the abdomen, twisting and turning of the trunk, arching of the back and the extension of the hindlimbs. Mice are given a single IP injection (0.1 mL/10 g bodyweight) of a 0.5% acetic acid solution. After the injection the animals were returned to their observation enclosure and their behavior was observed. Contractions were counted between 0 and 20 minutes after the injection. The animals were used once. In certain instances, the test articles were administered at multiple doses to determine a dose response curve.
Table 4 provides the results for certain compounds of the present invention that were administered subcutaneously. Table 5 provides the results for certain compounds of the present invention that were administered orally.

[2] = target: human mu (MOR) opioid receptor (Homo sapiens (Human), UniProt P35372); experiment: Radioligand competition binding assay, mu opioid receptor; settings: [3H]Naloxone; for inhibition at 10 µM: read-out: Mu receptor % inhibition at single concentration
Description: The binding affinities of certain compounds of the present invention were evaluated using radioligand binding assays in membranes prepared from CHO-K1 cells expressing recombinant human kappa (KOR) or mu (MOR) opioid receptors.
Competition binding experiments were conducted by incubating membrane protein to equilibrium in triplicate in the presence of a fixed concentration of radioligand and increasing concentrations of test compound for evaluation of binding to KOR or single concentration (10 μM) of test compound for evaluation of binding to MOR in 101 μL final volume. The radioligands used were specific for each receptor type, and the assay conditions are described in Table 1. Following incubations, the membranes were rapidly filtered through GF/B filter plate (presoaked with 0.5% polyethyleneimine), washed five times with cold 50 mM Tris-HCl, pH 7.5, and the bound radioactivity was then measured by liquid scintillation counting. Non-specific binding was measured in the presence of excess ligand; this value was subtracted from the total binding to yield the specific binding at each test concentration.
Ki (affinity of test compound) was obtained using the Cheng Prusoff correction using experimental Kd (affinity of radioligand) values that were previously determined under these assay conditions. For MOR binding, compounds were tested at one concentration, 10 μM, to evaluate its ability to inhibit specific radioligand binding. The values are expressed as percent inhibition of specific binding and greater than 50% inhibition of binding was considered to be significant.
With respect to determining MOR binding, an approach similar to one used for KOR binding was used.

[3] = target: MOR (Homo sapiens (Human), UniProt P35372); experiment: cAMP accumulation assay in forskolin-stimulated CHO-K1 cells stably expressing MOR; assay type: cell-based
Description: Inhibition of cAMP accumulation by select compounds was measured in forskolin-stimulated CHO-K1 cells stably expressing KOR. CHO-K1 cells stably expressing KOR were harvested using Invitrogen Cell Dissociation Buffer, and then centrifuged at 1200 rpm for five minutes. The supernatant was aspirated and cells were resuspended in assay buffer to a density of 4×10^5 cells/mL. 25 μL of cells were added into a white half-area 96 well plate. Fourteen point serial dilutions of test compounds were carried out in assay buffer (PBS with 0.5 mM IBMX). Ketazocine was used as a positive control for each assay. 12.5 μL of compound was added to the cells in duplicate for each test concentration. The cells were then stimulated with 12.5 μL forskolin at a final concentration 20 μM. Cells were incubated for 45 minutes in a 37° C., 5% CO2 water jacketed incubator. CisBio HTRF cAMP assay reagent was used for cAMP quantitation. Two hours after substrate addition, signal at 665/615 nm was measured using the Perkin Elmer Victor X4 HTRF reader. Data analysis was done using GraphPad Prism, sigmoidal dose-response (variable slope) curve fitting.
Using a similar approach, inhibition of cAMP accumulation by select compounds was also determined in forskolin-simulated CHO-K1 cells stably expressing MOR (wherein for this assay a density of 8×10^5 cells/mL was used and the positive control was DAMGO). […]

**Q.** Which results are given for `COCCOCCOCCOc1ccc2c(c1)[C@]1(C)CCN(CC3CC3)[C@H](C2=O)[C@@H]1C` [Example 4, (2S,6R,11R)-3-(Cyclopropylmethyl)-8-{2-[2-(2-methoxyethoxy)ethoxy]ethoxy}-6,11-dimethyl-3,4,5,6-tetrahydro-2,6-methano-3-benzazocin-1(2H)-One]?
**A.** AAW % Efficacy ([1]; oral, 200 mg/kg): 3.8%; AAW % Efficacy ([1]; subcutaneous, 3 mg/kg): 0.0%; AAW % Efficacy ([1]; subcutaneous, 10 mg/kg): 39.7%; AAW % Efficacy ([1]; subcutaneous, 30 mg/kg): 100.0%; inhibition at 10 µM [2]: 89.2%

**Q.** How did the inhibition at 10 µM [2] turn out when `COCCOCCOCCOCCOCCOCCOCCOc1ccc2c(c1)[C@]1(C)CCN(CC3CC3)[C@H](C2=O)[C@@H]1C` [Example 6, (2S,6R,11R)-3-(Cyclopropylmethyl)-8-(2,5,8,11,14,17,20-heptaoxadocosan-22-yloxy)-6,11-dimethyl-3,4,5,6-tetrahydro-2,6-methano-3-benzazocin-1(2H)-One] was run?
**A.** 48.6%

**Q.** `COCCOCCOCCOCCOCCO[C@@H]1c2ccc(O)cc2[C@]2(C)CCN(CC3CC3)[C@H]1[C@@H]2C` [Example 25, (1R,2S,6R,11R)-1-(2,5,8,11,14-pentaoxahexadecan-16-yloxy)-3-(cyclopropylmethyl)-6,11-dimethyl-1,2,3,4,5,6-hexahydro-2,6-methanobenzo[d]azocin-8-ol] was tested. Which EC50 [3] did it give?
**A.** 1.21 µM

**Q.** And the Ki ([2]; CHO-K1 membranes)?
**A.** 3.92 µM

**Q.** Which “AAW % Efficacy” value ([1]; oral, 0.1 mg/kg) does the source give for `C[C@H]1[C@H]2C(=O)c3ccc(O)cc3[C@]1(C)CCN2CC1CC1` [Ketazocine, (2S,6R,11R)-3-(cyclopropylmethyl)-8-hydroxy-6,11-dimethyl-3,4,5,6-tetrahydro-2,6-methanobenzo[d]azocin-1(2H)-one, reference compound] here?
**A.** 12.8%

**Q.** What about the “AAW % Efficacy” value ([1]; oral, 1 mg/kg) of the same compound?
**A.** 34.5%

**Q.** And the “AAW % Efficacy” value ([1]; oral, 10 mg/kg)?
**A.** 58.9%

**Q.** What about the “AAW % Efficacy” value ([1]; oral, 100 mg/kg) of the same compound?
**A.** 100.0%

**Q.** And the “AAW % Efficacy” value ([1]; subcutaneous, 0.01 mg/kg)?
**A.** 10.57%

**Q.** And the “AAW % Efficacy” value ([1]; subcutaneous, 0.1 mg/kg)?
**A.** 50.03%

**Q.** What about the “AAW % Efficacy” value ([1]; subcutaneous, 1 mg/kg) of the same compound?
**A.** 100.00%

**Q.** What about the inhibition at 10 µM [2] of the same compound?
**A.** 99.2%
